≈ marks a conversion by molar mass, not a printed value.
Experiments:
Format in all cases: physicochemical
[1] = Estimated solubility by solvent aliquot addition, visual inspection; conditions: thermodynamic from solid
Protocol: Solubilities of Compound 1 in a few solvents were estimated. The experiments were carried out by adding the test solvent in aliquots to weighed portions of solid. Whether dissolution had occurred was judged by visual inspection after addition of each solvent aliquot. Solubility numbers were calculated by dividing the total amount of solvent used to dissolve the sample by the weight of the sample. The actual solubilities may be greater than the numbers calculated because of the use of solvent aliquots that were too large or because of slow dissolution rates. […] The solubility number is expressed as “greater than or equal to” if dissolution occurred on addition of the first solvent aliquot.

[2] = Melt-quench modulated DSC of Compound 1
Protocol: A sample of Compound 1 was analyzed by Modulated Differential Scanning Calorimetry using a TA Discovery DSC2500 with RCS90 chiller according to standard instrument procedures provided by manufacturer. Parameters used for the analysis are shown below in Table 4. Two replicates of the experiment were run with reproducible results. The resulting thermogram, shown in FIG. 10C, indicates a glass transition temperature (Tg) of about 93° C., a crystallization temperature (Tc) of about 136° C., and a Tm/Tg ratio of 1.37. The Tm/Tg ratio of 1.37 is indicative of moderate physical stability. Without being bound by theory, the Te observed quickly after Compound 1 entering a rubbery state was indicative of a propensity to crystallize. [table]

[3] = Non-sink dissolution, 0.1N HCl then FaSSIF
Protocol: Sample of solid dispersions containing Compound 1 were analyzed in a non-sink dissolution experiment. Dispersion samples and neat Compound 1 were suspended in 0.1N HCl media at a concentration of 1000 ug/mL Compound 1. Concentration of each sample was then measured by centrifugation to pellet undissolved material, and an aliquot of the supernatant was assessed by HPLC for concentration. Material was then agitated in a Distek 2100 C Dissolution apparatus, USP Type II. Instrument was operated according to standard instrument procedures provided by manufacturer. Parameters used for the experiment are shown below in Table 11. After 30 minutes, the media was modulated to FaSSIF by adding equivalent volume of FaSSIF buffer with bile salts, bringing the theoretical concentration of compound 1 to 500 μg/mL. Dissolved concentration of Compound 1 in each sample was then assessed periodically by HPLC. […] These resulting values can be seen in Table 12 below.

[4] = Non-sink dissolution of unmicronized and micronized Form C in SLS in water; conditions: aqueous with cosolvent or surfactant or cyclodextrin
From the text: The enhancement in dissolution rate from micronized samples was likely due to the increase in surface area after micronization supported by microscopic images and particle sizing.

[5] = Chemical stability at elevated temperatures (DSC heating, HPLC); conditions: Form C batch heated in DSC to a variety of temperatures and holding times
Protocol: The API was heated to a variety of temperatures with several holding time periods in DSC. The resulted solids in DSC pan were extracted with DMSO. The solutions of API were prepared and injected into HPLC for determination of assay and related substances. […] One of possible solution to the API degradation in hot-melt extrusion might be the addition of a plasticizer which may lower the process temperature for maintaining chemical integrity of the API.

[6] = Log D7.4, shake-flask partitioning; conditions: pH 7.4, shake-flask (Pion, Inc.)
Protocol: Several biopharmaceutically relevant parameters of the API (Compound 1) were obtained for the API. […] Based on these two biopharmaceutical parameters, this compound is possibly a BCS Class II. Solubility enhancement is critical for bioavailability of the API for dosing. Therefore, to overcome the limitation from solubility, several experiments were conducted to assess various solubility enhancement approaches utilized in formulation development

[7] = Amorphous form: mDSC glass transition and TGA; conditions: preliminary TGA data
Protocol: To assess the feasibility of solid dispersion approach in formulation development, the glass transition temperature of the material was determined by modulated differential scanning calorimetry (mDSC). […] Therefore, as preparing an in-situ amorphous material in DSC pan, the end temperature should not ramp beyond 260° C. The amorphous samples were generated by heating the raw APIs from 25 to 250° C., followed by a rapid cooling to −60° C. The glass transition temperature (Tg) was measured by a slow heating of the generated amorphous samples from −60° C. to 250° C. The Tg for in-situ generated amorphous material from C and Form A was 93° C. and 97° C., respectively. The discrepancy in the two Tg values may simply due to the variation of water content in the samples or chemical purity.

[8] = Solvent shift assay in FaSSIF
Protocol: A solvent shift assay was performed in order to assess the effect of polymer excipients in improving supersaturation and sustainment in biorelevant media. Compound 1 was dissolved in DMSO to generate concentrated dissolved stock solution at 25 mg/mL. Stock API solution was then added to Fasted State Simulated Intestinal Fluid (FaSSIF) solution or FaSSIF solution containing predissolved polymer excipients to final concentration of compound 1 at 0.5 mg/mL. Ratios of Compound 1:polymer excipient in the final solution were either 20:80 or 40:60 (w/w). Samples were analyzed by HPLC to assess dynamic solubility of Compound 1 at various time points over a one hour period.

[9] = Saturated solubility at 80° C., visually estimated; conditions: Capmul MCM
[10] = DSC of crystalline Compound 1; conditions: ramp 10.0° C./min, 35° C.-275° C.
Protocol: A sample of Compound 1 was analyzed by Differential Scanning Calorimetry using a TA Discovery DSC2500 with RCS90 chiller according to standard instrument procedures provided by manufacturer. Parameters used for the analysis are shown below in Table 3. Two replicates of the experiment were run with reproducible results. The resulting thermogram, shown in FIG. 10B, indicated a melting temperature (Tm) of Compound 1 of about 229° C. and no degradation up to 275° C.

CC(=O)N1CCc2c(C(=O)N3CCC(c4ccc(F)c(F)c4C(F)(F)F)CC3)n[nH]c2C1 [Compound 1, 1-(3-(4-(3,4-difluoro-2-(trifluoromethyl)phenyl)piperidine-1-carbonyl)-1,4,5,7-tetrahydro-6H-pyrazolo[3,4-c]pyridin-6-yl)ethan-1-one]
solubility ([1]; 2-propanol, organic solvent or mixture): 4 mg/mL (≈ 8.76 mM) | solubility ([1]; acetone, organic solvent or mixture): 2 mg/mL (≈ 4.38 mM) | solubility ([1]; acetonitrile, organic solvent or mixture): < 1 mg/mL | solubility ([1]; dichloromethane, organic solvent or mixture): 2 mg/mL (≈ 4.38 mM) | solubility ([1]; dimethylformamide, organic solvent or mixture): 15 mg/mL (≈ 32.9 mM) | solubility ([1]; ethanol (absolute), organic solvent or mixture): 6 mg/mL (≈ 13.1 mM) | solubility ([1]; ethyl acetate, organic solvent or mixture): 1 mg/mL (≈ 2.19 mM) | solubility ([1]; ethyl ether, organic solvent or mixture): < 1 mg/mL | solubility ([1]; methanol, organic solvent or mixture): 6 mg/mL (≈ 13.1 mM) | solubility ([1]; tetrahydrofuran, organic solvent or mixture): 6 mg/mL (≈ 13.1 mM) | solubility ([1]; water): < 1 mg/mL | Tm/Tg ratio ([2]; indicative of moderate physical stability): 1.37 | crystallization temperature (Tc) ([2]; melt-quenched Compound 1): about 136 °C | glass transition temperature (Tg) ([2]; melt-quenched Compound 1): about 93 °C | AUC 5-180 IB ([3]; FaSSIF): 1300 min*μgA/mL | C210 ([3]; final concentration): 7.1 μgA/mL | solubility ([4]; 0.366% SLS in water, read-out: nominal solubility of the API): ~0.46 mg/mL (≈ 1.01 mM) | solubility ([4]; 0.36% SLS in water, calculated from SLS concentration vs solubility profile, read-out: solubility of the API): 0.445 mg/mL (≈ 0.974 mM) | chemical stability at elevated temperatures, HPLC related substances [5]: impurity (with RRT=0.8 in HPLC) were present in all prepared samples except the control sample | logD [6]: 3.23 | temperature at which continuous weight loss due to decomposition started (TGA) [7]: 260 °C | Total Drug AUC FaSSIF ([8]; 0.5 mg/mL Compound 1 from DMSO stock into FaSSIF, one hour): 13100 min*μgA/mL | Total Drug C60 ([8]; FaSSIF, 60 min): 91.3 μgA/mL | solubility ([9]; 80 °C, oil or lipid, thermodynamic from solid): 16 mg/mL (≈ 35.1 mM) | saturated solubility ([9]; listed as API): 20 mg/mL | no degradation up to (DSC) [10]: 275 °C
